Consider 7 compounds from US20260209152A1, “Substituted Hydroxystilbene Compounds and Derivatives, Synthesis and Uses Thereof” (Kynan Duke IP, LLC, priority 2019, published 2026).

Each structure is given as a SMILES string. Where two headings read alike, the source gives them in different places.

In series [1] the test system is IL-8 release from IL-17A and TNFα-induced primary human keratinocytes. As to the kind of experiment: Keratinocyte IL-8 release (assay number 1250). Type of series: cell-based. The following applies: for EC50 / Emax: Homo sapiens, Keratinocyte; for Max Eff.: IL-8 (1250): highest effect as percentage of control maximum effect; for Emax: read-out: maximum efficacy, IL-8 release. The method, then: Inhibition of IL-8 release from IL-17A and TNFα-induced primary human keratinocytes LEO Pharma Open Innovation assay number 1250 openinnovation.leo-pharma.com
The inflammatory skin disease psoriasis is characterized by cytokines IL-17A and TNFα. In the present assay, primary human keratinocytes are stimulated with a mixture of these cytokines, and the release of IL-8 (also called CXCL8) is measured in the culture supernatant by proximity homogenous time-resolved fluorescence (HTRF).
• Detach the cells as described above. • Resuspend pellet in 10 ml EpiLife Medium with HKGS Kit but without hydrocortisone • Filter the cells though a 37 µm strainer. • Count cells using a cell counter. • Seed Human Epidermal Keratinocytes, adult (HEKa) cells in 384-well view plates 3500 c/w/40 μL. Use cell media with supplement but without hydrocortisone as assay medium. • Place the plates with lids on in a humidity chamber with lid (24.5×24.5 cm box added H2O in the bottom). • Incubate plates over night at 37° C., 5% CO2/95% air.
• Prepare compound-containing source plate, i.e. titrations in DMSO to be transferred to the assay plate. • Empty the assay plate, and re-add 25 μL assay medium. • Add 75 nL compounds and controls from the source plate to the assay plate (with cells). • Add 25 μL assay medium and incubate for 2 hours. • Add 25 μL stimulation mix in assay medium (recombinant human interleukin 17A and Tumor necrosis factor-alpha) to give a final concentration of 10 ng/mL of both cytokines. • Incubate plates at 37° C., 5% CO2/95% air for 3 days.
• Remove plates from incubation and equilibrate to room temperature for 30 minutes. • Transfer 2 μL supernatant to white proxi 384-well plates for IL-8 detection. • Add 2 μL assay medium • Prepare IL-8 HTRF mix (according to manufactory protocol) and add 2 μL pr well. • Seal and incubate for 3 hours and read fluorescence in a plate reader.
IL-8 concentration in the supernatant is measured using homogeneous time-resolved fluorescence resonance (TR-FRET). The assay is quantified by measuring fluorescence at 665 nm (proportional to IL8 concentration) and 620 nm (control). A ratio 665/620*1000 is calculated as a representation of the amount of IL-8 in the supernatant.

Series [2] can be described thus: Cell viability in PBMC IL-17 assay (assay number 1322). Type of series: cell-based, human. As to conditions: human. Here is the method: (§1) The inflammatory skin disease psoriasis is characterized by cytokines IL-17A and TNFα. In the present assay, human peripheral blood mononuclear cells (PBMC) are stimulated with beads coated with antibodies against CD3 and CD28 to activate the T-cell receptor, and stimulated with IL-23 to promote T-helper17 activity. The cells are incubated for three days, then the secreted level of IL-17A is measured in the culture supernatant using AlphaLISA and the amount of living cells is measured by addition of resazurin (PrestoBlue®) to identify compounds that inhibit cell proliferation or viability. […] Compounds which inhibit IL-17A secretion may be expected to have efficacy in psoriasis.
(§2) • IL-17A concentration in the supernatants is measured using an alphaLISA kit (Perkin Elmer, cat no. AL219F). • Pretest to find optima dilution of samples: Test 5 μL supernatant from control wells and run IL-17A alphaLISA assay with only 2 hours of incubation. • When data are available, remove assay plates from incubation and equilibrate to room temperature for 30 minutes. • Transfer 5 μL or corrected amounts of supernatant to a 384-proxy plate • Add 5 μL alphaLISA acceptor beads. • Incubate 1 hour at room temperature • Add 5 μL donor beads • Incubate overnight at room temperature protected from light. • Add 7 μL PrestoBlue reagent (resazurin)/well to the assay plate and incubated for 2-4 hours at 37° C./5% CO2. The fluorescence in the wells is measured (Ex615/Em 535).
(§3) The level of living cells in the wells is measured by the addition of PrestoBlue® and the conversion of Resazurin to Resorufin (fluorescent) in living cells is measured.
(§4) The effect of the test compounds on viability/proliferation is normalized to the PrestoBlue signal in the negative control wells treated with a toxic compound, Terfenadine.

The next series concerns human PBMC. Described as above. Format: cell-based. As to conditions: Homo sapiens. Here is the method:
as §1, §2, §3, §4

Series [3] is described as follows: Cell viability in keratinocyte IL-8 assay (assay number 1244). Format: cell-based, human. As to conditions: human, primary human keratinocytes induced with IL-17A and TNFα. The source says: (§5) • 1. Determination of inhibition of CCL2 release from IL-4, IL-13, IL-22 and IFN-γ-stimulated primary human keratinocytes [assay number 1280] and determination of the effect on cell viability [assay number 1243]. • 2. Determination of inhibition of IL-8 release from IL-17A and TNFα-induced primary human keratinocytes [assay number 1250] and determination of the effect on cell viability [assay number 1244]. • 3. Determination of inhibition of IL-17A secretion from human PBMC stimulated with antiCD3/antiCD28-coated beads [assay number 1321] and determination of the effect on cell viability [assay number 1322]. • 4. Determination of inhibition of IL-4 and IL-2 secretion from human CD4-positive T-cells stimulated with antiCD2/antiCD3/antiCD28-coated beads [assay number 1297, 1298] and determination of the effect on cell viability [assay number 1299].

For series [4], the system named is primary human keratinocytes. The series is described as above. Type of series: cell-based. The following applies: Homo sapiens.
Source text: as §5

Setting [5] is: inhibition of IL-8 release, IL-17A and TNFα-induced keratinocytes, read-out: Abs EC50: IL-8 (1250).
The mark [6] stands for this setting: maximum reduction of cell viability in PBMC IL-17 assay, read-out: Max Eff.: Viab (1322).
Where [7] appears, read: cell viability in PBMC IL-17 assay, read-out: Abs EC50: Viab (1322).
Where [8] appears, read: maximum reduction of cell viability in IL-8 assay, read-out: Max Eff.: Viab (1244).
Setting [9] is: Keratinocyte, cell viability in IL-8 assay, read-out: Abs EC50: Viab (1244).
Where [10] appears, read: read-out: EC50, inhibition of IL-8 release.
The mark [11] stands for this setting: keratinocyte IL-8 assay, read-out: maximum reduction of cell viability.
[12] abbreviates: keratinocyte IL-8 assay, read-out: EC50, cell viability.

As a reminder, the EC50 is the concentration at which the effect is half-maximal. As to `CCOc1cc(O)cc(/C=C/c2ccc(NC(=O)C(=O)O)c(OC)c2)c1CC=C(C)C` [Compound 35, (E)-2-((4-(3-Ethoxy-5-hydroxy-2-(3-methylbut-2-en-1-yl)styryl)-2-methoxyphenyl)amino)-2-oxoacetic acid], the values for the EC50 (in series [1] (setting [5]); with human PBMC (setting [7]); in series [4] (setting [9])) were 2950 nM, 5000 nM and 5000 nM, respectively. In series [1], the “Max Eff.: IL-8 (1250)” value was determined as 77%. Besides, the cytotoxicity at 3 days in series [2] (setting [6]) is 18%. Moreover, the cytotoxicity in series [3] (setting [8]) is 72%.
On to `COc1cc(/C=C/c2cc(O)cc(OC)c2CC=C(C)C)ccc1NC=O` [Compound 27, (E)-N-(4-(5-hydroxy-3-methoxy-2-(3-methylbut-2-en-1-yl)styryl)-2-methoxyphenyl)formamide], for which the EC50 in series [1] (setting [5]) worked out at 46 nM; in series [1] (setting [10]) it was 46 nM; with human PBMC (setting [7]), 5000 nM; in series [4] (setting [9]) it was 32 nM; in series [4] (setting [12]) it was 32 nM. Also, in series [1], the Emax worked out at 75%. Further, the “Max Eff.: IL-8 (1250)” value in series [1] was determined as 75%. Moreover, the cytotoxicity at 3 days in series [2] (setting [6]) came out at 52%. Further, the cytotoxicity in series [3] (setting [11]) was 83%.
With `CCOc1cc(O)cc(/C=C/c2ccc(NC=O)c(OC)c2)c1CC=C(C)C` [Compound 28, (E)-N-(4-(3-Ethoxy-5-hydroxy-2-(3-methylbut-2-en-1-yl)styryl)-2-methoxyphenyl)formamide], the “reduction of IL-8 release, in words” value in series [1] is listed as “medium potency reduction of IL-8 release”. Further, the EC50 in series [1] (setting [5]) was 44 nM; in series [1] (setting [10]), 44 nM; in the series on human PBMC (PBMC IL-17 assay, read-out: EC50, cell viability), 659 nM; in the series with human PBMC (setting [7]), 659 nM; in series [4] (setting [9]), 35 nM; in series [4] (setting [12]) it was 35 nM. In series [1], the Emax came to 85%. In addition, the “Max Eff.: IL-8 (1250)” value in series [1] worked out at 85%. The cytotoxicity at 3 days in series [2] (PBMC IL-17 assay, read-out: maximum reduction of cell viability) turned out to be 54%. In addition, the cytotoxicity in series [3] (setting [11]) amounted to 81%.
On to `CCOc1cc(O)cc(/C=C/c2ccc(O)c(OC)c2)c1CC=C(C)C` [Compound 8, (E)-3-Ethoxy-5-(4-hydroxy-3-methoxystyryl)-4-(3-methylbut-2-en-1-yl)phenol], for which the EC50 worked out at 37 nM in series [1] (setting [5]), 582 nM in the series with human PBMC (setting [7]) and 32 nM in series [4] (setting [9]). For the same compound, the “Max Eff.: IL-8 (1250)” value in series [1] was determined as 107%. Also, the cytotoxicity at 3 days in series [2] (setting [6]) is 57%. Also, the cytotoxicity in series [3] (setting [8]) is 101%.
On to `CCOc1cc(O)cc(/C=C/c2ccc(O)c(O)c2)c1CC=C(C)C` [Compound 20, (E)-4-(3-Ethoxy-5-hydroxy-2-(3-methylbut-2-en-1-yl)styryl)benzene-1,2-diol], for which the concentration for a half-maximal effect (EC50) in series [1] (setting [5]) was found to be 321 nM; in the series with human PBMC (setting [7]), 5000 nM; in series [4] (setting [9]), 221 nM. Moreover, in series [1], the “Max Eff.: IL-8 (1250)” value was found to be 93%. The cytotoxicity at 3 days in series [2] (setting [6]) turned out to be 47%. Also, the cytotoxicity in series [3] (setting [8]) was 76%.
In the case of `COc1cc(/C=C/c2cc(O)cc(OC)c2CC=C(C)C)ccc1O` [Compound 1, (E)-3-(4-hydroxy-3-methoxystyryl)-5-methoxy-4-(3-methylbut-2-en-1-yl)phenol], the EC50 in series [1] (setting [5]) is 80 nM; with human PBMC (setting [7]) it was 5000 nM; in series [4] (setting [9]) it was 90 nM. The “Max Eff.: IL-8 (1250)” value in series [1] is 94%. Also, the cytotoxicity at 3 days in series [2] (setting [6]) came to 50%. Moreover, in series [3] (setting [8]), the cytotoxicity was determined as 92%.
For `COc1cc(/C=C/c2cc(O)cc(OC)c2CC=C(C)C)ccc1NC(=O)CN` [Compound 31, (E)-2-amino-N-(4-(5-hydroxy-3-methoxy-2-(3-methylbut-2-en-1-yl)styryl)-2-methoxyphenyl)acetamide], the EC50 in series [1] (setting [5]) is 364 nM; in the series on human PBMC (setting [7]) it was 5000 nM; in series [4] (setting [9]) it was 416 nM. Also, in series [1], the “Max Eff.: IL-8 (1250)” value is 105%. For the same compound, the cytotoxicity at 3 days in series [2] (setting [6]) came to 32%. Besides, the cytotoxicity in series [3] (setting [8]) was determined as 100%.
